Laboratory results published in publication PMC9848270, “Synthesis and biological assessment of indole derivatives containing penta-heterocycles scaffold as novel anticancer agents towards A549 and K562 cells” (Journal of Enzyme Inhibition and Medicinal Chemistry, 2023).
Where two headings read alike, the source gives them in different places.

Experiments:
[1] = tested on: human non-small cell lung cancer cells (A549); assay: MTT antiproliferative assay, A549; format: cell-based; settings: for inhibition at 10 µM: A549, 10 μM, read-out: Inhibition rate, A549
Procedure: (§1) A549, PC-3, HepG2 and K562 cells were purchased from the Kunming cell bank of the Chinese academy of sciences. All cell lines were cultured in DMEM or RPMI 1640 complete medium. Logarithmic growth cells were cultured in 96-well plates at a concentration of 10^4 cells per well and pre-cultured for 24 h before adding test compounds. The MTT test with 5-Fluorouracil and Gefitinib as reference compounds were used to evaluate antiproliferative activity of target compounds in four human cancer line cells. For the estimation of the inhibition concentration (IC50), the Graph Pad Prism (GraphPad Software, San Diego, CA) was used.

[2] = tested on: human prostate cancer cells (PC-3); assay: MTT antiproliferative assay, PC-3; format: cell-based; settings: Homo sapiens; for IC50: 48 h, MTT assay, read-out: In vitro cytotoxicity IC50, PC-3; for inhibition at 10 µM: read-out: Inhibition rate, PC-3
Procedure: as §1

[3] = tested on: human liver cancer cells (HepG2); assay: MTT antiproliferative assay, HepG2; format: cell-based; settings: for inhibition at 10 µM: read-out: Inhibition rate, HepG2; for IC50: MTT assay, 48 h, read-out: In vitro cytotoxicity IC50, HepG2
Procedure: as §1

[4] = tested on: human chronic myeloid leukaemia cells (K562); assay: MTT antiproliferative assay, K562; format: cell-based; settings: for inhibition at 10 µM: K562, 10 μM, read-out: Inhibition rate, K562
Procedure: as §1

[5] = MTT cytotoxicity, normal cell line HEK293; format: cell-based, human; settings: human; for IC50 at 48 h: HEK293 cells (normal cell line), MTT assay, normal cell line, CC50, read-out: In vitro cytotoxicity IC50, HEK293
[6] = tested on: normal cell line (HEK293); assay: MTT cytotoxicity, normal cell line HEK293; format: cell-based, human; settings: Homo sapiens, HEK293; 10 μM; read-out: Inhibition rate, HEK293
[7] = A549, 48 h, MTT assay, 48 h, read-out: In vitro cytotoxicity IC50, A549
[8] = K562, 48 h, MTT assay, 48 h, read-out: In vitro cytotoxicity IC50, K562

melting point | IC50 ([1]; A549, Table 2, unit inferred, repeats Table 1, read-out: A549 (IC50, Table 2)) | IC50 ([4]; K562, Table 2, unit inferred, repeats Table 1, read-out: K562 (IC50, Table 2)) | Compound | inhibition at 10 µM [1] | IC50 [1, 7] | IC50 [2] | inhibition at 10 µM [2] | inhibition at 10 µM [3] | IC50 [3] | inhibition at 10 µM [4] | IC50 [4, 8] | IC50 at 48 h [5] | inhibition at 10 µM [6] | CC50 ([5]; HEK293 cells, Table 2, unit inferred, repeats Table 1)
258 to 260 °C |  |  | Nn1c(SCC(=O)Nc2cc(-c3c[nH]c4ccccc34)n[nH]2)nnc1-c1cc(Cl)cc(Cl)c1 [Compound 11a, N-(3-(1H-indol-3-yl)-1H-pyrazol-5-yl)-2-((4-amino-5–(3,5-dichlorophenyl)-4H-1,2,4-triazol-3-yl)thio)acetamide] | 32.9 ± 3.84% | 27.3 ± 3.47 µM | 7.66 ± 1.5 µM | 79 ± 3.97% | 19.3 ± 4.13% | 40.3 ± 7.83 µM | 95.6 ± 1.68% | 3.64 ± 0.08 µM | 16.8 ± 5.56 µM | 58.5 ± 2.72% | 
259 to 261 °C |  |  | COc1cc(-c2nnc(SCC(=O)Nc3cc(-c4c[nH]c5ccccc45)n[nH]3)n2N)cc(OC)c1OC [Compound 11b, N-(3-(1H-indol-3-yl)-1H-pyrazol-5-yl)-2-((4-amino-5–(3,4,5-trimethoxyphenyl)-4H-1,2,4-triazol-3-yl)thio)acetamide] | 32.6 ± 3.42% | 29.8 ± 4.05 µM | 5.73 ± 1.69 µM | 80.3 ± 3.56% | 72.7 ± 4.94% | 10.6 ± 1.42 µM | 96.4 ± 1.16% | 3.09 ± 0.41 µM | 20.2 ± 4.08 µM | 72.1 ± 1.62% | 
194 to 195 °C |  |  | Nn1c(SCC(=O)Nc2cc(-c3c[nH]c4ccccc34)n[nH]2)nnc1-c1ccccc1Br [Compound 11c, N-(3-(1H-indol-3-yl)-1H-pyrazol-5-yl)-2-((4-amino-5–(2-bromophenyl)-4H-1,2,4-triazol-3-yl)thio)acetamide] | 10.5 ± 0.521% | 67.7 ± 1.35 µM | 60.8 ± 4.73 µM | 12.3 ± 2.04% | 10.4 ± 1.73% | 74.7 ± 13.4 µM | 14.9 ± 1.32% | 43.4 ± 1.96 µM | 75.4 ± 2.35 µM | 1.73 ± 2.31% | 
240 to 241 °C |  |  | Nn1c(Cc2ccc(Cl)cc2)nnc1SCC(=O)Nc1cc(-c2c[nH]c3ccccc23)n[nH]1 [Compound 11d, N-(3-(1H-indol-3-yl)-1H-pyrazol-5-yl)-2-((4-amino-5–(4-chlorobenzyl)-4H-1,2,4-triazol-3-yl)thio)acetamide] | 87.4 ± 12.5% | 4.79 ± 0.21 µM | 8.42 ± 0.56 µM | 56.2 ± 9.24% | 16.3 ± 2.1% | 49.6 ± 10.2 µM | 95.4 ± 0.809% | 3.51 ± 1.05 µM | 11.6 ± 0.87 µM | 63.4 ± 7.49% | 
238 to 240 °C |  |  | COc1ccc(-c2nnc(SCC(=O)Nc3cc(-c4c[nH]c5ccccc45)n[nH]3)n2N)cc1 [Compound 11e, N-(3-(1H-indol-3-yl)-1H-pyrazol-5-yl)-2-((4-amino-5–(4-methoxyphenyl)-4H-1,2,4-triazol-3-yl)thio)acetamide] | 47.9 ± 9.44% | 21.4 ± 4.46 µM | 11.7 ± 1.64 µM | 54.7 ± 14.8% | 63.5 ± 20% | 10.4 ± 2.86 µM | 98.7 ± 0.418% | 4.32 ± 0.53 µM | 4.94 ± 0.75 µM | 67.3 ± 1.39% | 
214 to 215 °C |  |  | Nn1c(SCC(=O)Nc2cc(-c3c[nH]c4ccccc34)n[nH]2)nnc1-c1ccc(Cl)cc1 [Compound 11f, N-(3-(1H-indol-3-yl)-1H-pyrazol-5-yl)-2-((4-amino-5–(4-chlorophenyl)-4H-1,2,4-triazol-3-yl)thio)acetamide] | 32.8 ± 4.22% | 11.8 ± 3 µM | 19.1 ± 8.43 µM | 28.9 ± 3.01% | 46.9 ± 6.62% | 9.04 ± 0.93 µM | 25 ± 3.24% | 32.3 ± 4.05 µM | 18.1 ± 3.14 µM | 40.1 ± 2.19% | 
226 to 227 °C |  |  | Nn1c(SCC(=O)Nc2cc(-c3c[nH]c4ccccc34)n[nH]2)nnc1-c1ccccc1F [Compound 11g, N-(3-(1H-indol-3-yl)-1H-pyrazol-5-yl)-2-((4-amino-5–(2-fluorophenyl)-4H-1,2,4-triazol-3-yl)thio)acetamide] | 67.5 ± 1.65% | 10.1 ± 2.37 µM | 6.52 ± 1.85 µM | 72.2 ± 13.2% | 74.9 ± 25.5% | 9.65 ± 5.87 µM | 98.5 ± 0.653% | 3.78 ± 0.54 µM | 5.05 ± 1.17 µM | 65.4 ± 6.38% | 
195 to 197 °C | 1.15 ± 0.26 µM | 0.0639 ± 0.02 µM | Nn1c(SCC(=O)Nc2cc(-c3c[nH]c4ccccc34)n[nH]2)nnc1-c1cccnc1 [Compound 11h, N-(3-(1H-indol-3-yl)-1H-pyrazol-5-yl)-2-((4-amino-5-(pyridine-3-yl)-4H-1,2,4-triazol-3-yl)thio)acetamide] | 97.8 ± 0.354% | 1.15 ± 0.26 µM | 3.16 ± 0.23 µM | 65.1 ± 0.595% | 93.6 ± 0.215% | 1.23 ± 0.06 µM | 98.6 ± 0.417% | 0.06 µM | 1.79 ± 0.63 µM | 77.8 ± 4.16% | 1.79 ± 0.63 µM
170 to 172 °C |  |  | Nn1c(SCC(=O)Nc2cc(-c3c[nH]c4ccccc34)n[nH]2)nnc1-c1ccncc1 [Compound 11o, N-(3-(1H-indol-3-yl)-1H-pyrazol-5-yl)-2-((4-amino-5-(pyridin-4-yl)-4H-1,2,4-triazol-3-yl)thio)acetamide] |  | 30.3 ± 7 µM | 38.3 ± 1.75 µM |  |  | 33.4 ± 7.97 µM |  | 66 ± 3.48 µM | 21.8 ± 1.76 µM |  | 

The remaining lines, values behind:

Compound | melting point | IC50 ([1]; A549, Table 2, unit inferred, repeats Table 1, read-out: A549 (IC50, Table 2)) | IC50 ([4]; K562, Table 2, unit inferred, repeats Table 1, read-out: K562 (IC50, Table 2)) | inhibition at 10 µM [1] | IC50 [1, 7] | IC50 [2] | inhibition at 10 µM [2] | inhibition at 10 µM [3] | IC50 [3] | inhibition at 10 µM [4] | IC50 [4, 8] | IC50 at 48 h [5] | inhibition at 10 µM [6] | CC50 ([5]; HEK293 cells, Table 2, unit inferred, repeats Table 1)
O=C(CSc1nnc(-c2cc(Cl)cc(Cl)c2)s1)Nc1cc(-c2c[nH]c3ccccc23)n[nH]1 [Compound 10a, N-(3-(1H-indol-3-yl)-1H-pyrazol-5-yl)-2-((5-(3,5-dichlorophenyl)-1,3,4-thiadiazol-2-yl)thio)acetamide] |  |  |  | 85.6 ± 3.54% | 0.433 ± 0.1 µM | 0.141 ± 0.01 µM | 95.7 ± 0.624% | 76 ± 3.39% | 4.45 ± 0.42 µM | 96 ± 2.31% | 0.0527 ± 0.02 µM | 1.33 ± 0.07 µM | 87.6 ± 2.19% | 
O=C(CSc1nnc(Cc2ccc(Cl)cc2)s1)Nc1cc(-c2c[nH]c3ccccc23)n[nH]1 [Compound 10d, N-(3-(1H-indol-3-yl)-1H-pyrazol-5-yl)-2-((5-(4-chlorobenzyl)-1,3,4-thiadiazol-2-yl)thio)acetamide] | 151 to 153 °C |  |  | 90.7 ± 6.19% | 1.28 ± 0.33 µM | 1.6 ± 0.44 µM | 82.6 ± 4.95% | 93.7 ± 1.88% | 0.732 ± 0.15 µM | 96.1 ± 1.29% | 0.184 ± 0.02 µM | 0.74 ± 1.25 µM | 84.7 ± 2.75% | 
COc1ccc(-c2nnc(SCC(=O)Nc3cc(-c4c[nH]c5ccccc45)n[nH]3)s2)cc1 [Compound 10e, N-(3-(1H-indol-3-yl)-1H-pyrazol-5-yl)-2-((5-(4-methoxyphenyl)-1,3,4-thiadiazol-2-yl)thio)acetamide] |  |  |  | 92.2 ± 1.01% | 0.834 ± 0.09 µM | 0.852 ± 0.43 µM | 92.5 ± 0.391% | 95.5 ± 0.354% | 0.801 ± 0.09 µM | 98.7 ± 1.05% | 0.193 ± 0.09 µM | 0.89 ± 2.32 µM | 85.5 ± 1.26% | 
O=C(CSc1nnc(-c2ccc(Cl)cc2)s1)Nc1cc(-c2c[nH]c3ccccc23)n[nH]1 [Compound 10f, N-(3-(1H-indol-3-yl)-1H-pyrazol-5-yl)-2-((5-(4-chlorophenyl)-1,3,4-thiadiazol-2-yl)thio)acetamide] |  |  |  | 85.2 ± 3.63% | 4.33 ± 0.3 µM | 8.86 ± 7.04 µM | 58.7 ± 28.6% | 90.3 ± 2.77% | 3.34 ± 0.6 µM | 95.8 ± 3.98% | 0.991 ± 0.52 µM | 2.56 ± 0.9 µM | 60.9 ± 6.65% | 
O=C(CSc1nnc(-c2cccnc2)s1)Nc1cc(-c2c[nH]c3ccccc23)n[nH]1 [Compound 10h, N-(3-(1H-indol-3-yl)-1H-pyrazol-5-yl)-2-((5-(pyridine-3-yl)-1,3,4-thiadiazol-2-yl)thio)acetamide] | 233 to 235 °C |  |  | 43.5 ± 1.7% | 7.96 ± 1.39 µM | 16.7 ± 4.86 µM | 28.9 ± 2.71% | 63.2 ± 5.32% | 5.58 ± 2.69 µM | 64.3 ± 8.28% | 6.93 ± 1.63 µM | 21.9 ± 1.31 µM | 18.7 ± 8.52% | 
O=C(CSc1nnc(-c2ccccn2)s1)Nc1cc(-c2c[nH]c3ccccc23)n[nH]1 [Compound 10i, N-(3-(1H-indol-3-yl)-1H-pyrazol-5-yl)-2-((5-(pyridine-2-yl)-1,3,4-thiadiazol-2-yl)thio)acetamide] | 226 to 228 °C |  |  | 35.7 ± 2.75% | 12 ± 1.46 µM | 24.1 ± 5.07 µM | 30.5 ± 9.1% | 51.9 ± 5.57% | 8.37 ± 2.29 µM | 40.5 ± 6.54% | 12.5 ± 2.46 µM | 26.3 ± 1.63 µM | 46.5 ± 7.5% | 
